Molecular target: T1, ABCG2 (Homo sapiens, UniProt Q9UNQ0)
T1 sequence (Q9UNQ0 1-655): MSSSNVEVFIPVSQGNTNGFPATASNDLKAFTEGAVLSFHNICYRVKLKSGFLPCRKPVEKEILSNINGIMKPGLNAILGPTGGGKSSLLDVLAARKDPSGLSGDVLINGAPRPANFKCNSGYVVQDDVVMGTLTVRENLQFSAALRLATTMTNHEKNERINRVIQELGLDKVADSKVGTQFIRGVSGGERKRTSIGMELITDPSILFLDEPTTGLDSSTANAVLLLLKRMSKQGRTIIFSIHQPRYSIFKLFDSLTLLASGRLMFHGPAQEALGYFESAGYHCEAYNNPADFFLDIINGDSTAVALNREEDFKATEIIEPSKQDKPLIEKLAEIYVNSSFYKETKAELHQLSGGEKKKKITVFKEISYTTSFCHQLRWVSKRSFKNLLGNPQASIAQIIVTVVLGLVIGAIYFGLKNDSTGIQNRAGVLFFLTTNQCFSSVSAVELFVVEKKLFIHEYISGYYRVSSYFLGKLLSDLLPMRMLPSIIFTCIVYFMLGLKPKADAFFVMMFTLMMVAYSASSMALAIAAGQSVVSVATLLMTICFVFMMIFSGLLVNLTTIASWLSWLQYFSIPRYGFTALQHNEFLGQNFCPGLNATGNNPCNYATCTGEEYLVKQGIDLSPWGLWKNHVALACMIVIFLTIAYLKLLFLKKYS
Test: Vi-sensitive ABCG2 ATPase stimulation in High Five insect cell membranes
Type: biochemical

EC50 | Compound
0.21 µM | COc1ccc(C(=O)c2ccc3[nH]cc(C(=O)c4ccc(OC)cc4)c3c2OC)cc1 [compound 2, (4-methoxy-1H-indole-3,5-diyl)bis((4-methoxyphenyl)methanone)]
0.75 µM | COc1ccc(C(=O)c2c[nH]c3ccc(OC)cc23)cc1 [compound 8, (5-Methoxy-1H-indol-3-yl)(4-methoxyphenyl)methanone]

— PMC6718313 (European journal of medicinal chemistry, 2019)
